Reference: patent US7767665B2, “1,3-benzothiazinone derivatives and use thereof” (Takeda Pharmaceutical Company Limited, priority 2001, dated 2010)
Structures can show the parent of a compound that is named as a salt.

| melting point | Structure (SMILES) |
| --- | --- |
| 238.2 to 239.5 °C (dec.) | CS(=O)(=O)c1cccc(-c2nc(=O)c3ccccc3s2)n1 [Example 45, 2-(6-Methylsulfonyl-2-pyridyl)-4H-1,3-benzothiazine-4-one] |
| 137.6 to 138.1 °C | CC(C)(C)OC(=O)CCc1ccnc(-c2nc(=O)c3ccc(F)cc3s2)c1 [Example 184, tert-Butyl 3-[2-(7-fluoro-4-oxo-4H-1,3-benzothiazin-2-yl)-4-pyridyl]propanoate] |
| 305.5 to 306 °C | CS(=O)(=O)c1cc(CCC(=O)O)cc(-c2nc(=O)c3ccccc3s2)n1 [Example 346, 3-[2-(Methylsulfonyl)-6-(4-oxo-4H-1,3-benzothiazin-2-yl)-4-pyridyl]propionic acid] |
| 234.9 to 235.2 °C | Cc1ccnc(-c2cc(C)cc(-c3nc(=O)c4ccccc4s3)n2)c1 [Example 200, 2-[6-(4,4′-Dimethyl-2,2′-bipyridyl)]-4H-1,3-benzothiazine-4-one] |
| 213.9 to 214.7 °C | O=C(NCc1cccc(-c2nc(=O)c3ccccc3s2)n1)c1ccccc1 [Example 207, N-[[6-(4-Oxo-4H-1,3-benzothiazin-2-yl)-2-pyridyl]methyl]benzamide] |
| 205 to 206 °C | CC(C)S(=O)(=O)c1cccc(-c2nc(=O)c3ccccc3s2)n1 [Example 152, 2-[6-(Isopropylsulfonyl)-2-pyridyl]-4H-1,3-benzothiazine-4-one] |
| 195 to 196.5 °C | C[S+]([O-])c1ccc(-c2nc(=O)c3ccccc3s2)cn1 (stereo not drawn) [Example 261, 2-[6-(Methylsulfinyl)-3-pyridyl]-4H-1,3-benzothiazine-4-one] |
| 258 to 260 °C | O=C(O)CSc1cccc(-c2nc(=O)c3ccccc3s2)n1 [Example 276, [6-(4-Oxo-4H-1,3-benzothiazin-2-yl)-2-pyridyl]thioacetic acid] |
| 284.3 to 285 °C | O=C(O)/C=C/c1ccnc(-c2nc(=O)c3ccccc3s2)c1 [Example 310, (E)-3-[2-(4-Oxo-4H-1,3-benzothiazin-2-yl)-4-pyridyl]acrylic acid] |
| 161.5 to 163.5 °C | O=c1nc(-c2cccc(S(=O)(=O)CCc3ccccc3)n2)sc2ccccc12 [Example 163, 2-[6-(2-Phenylethyl)sulfonyl-2-pyridyl]-4H-1,3-benzothiazine-4-one] |
| 115.5 to 116.5 °C | CCOP(=O)(Cc1cccc(-c2nc(=O)c3ccccc3s2)n1)OCC |
| 192 to 193.5 °C | O=C(O)CS(=O)(=O)c1cccc(-c2nc(=O)c3ccccc3s2)n1 [Example 281, [6-(4-Oxo-4H-1,3-benzothiazin-2-yl)-2-pyridyl]sulfonylacetic acid] |
| 162.7 to 163 °C | O=c1nc(-c2ccnc(-c3ccccc3)c2)sc2ccccc12 [Example 75, 2-(2-Phenyl-4-pyridyl)-4H-1,3-benzothiazine-4-one] |
| 216 to 217 °C | O=c1nc(-c2cnc3ccccc3c2)sc2ccccc12 [Example 4, 2-(3-Quinolinyl)-4H-1,3-benzothiazine-4-one] |
| 213 to 214 °C | CSc1ccnc(-c2nc(=O)c3ccccc3s2)c1 [Example 298, 2-[4-(Methylthio)-2-pyridyl]-4H-1,3-benzothiazine-4-one] |
| 199.2 to 200.4 °C | CC(=O)NCc1cccc(-c2nc(=O)c3ccccc3s2)n1 [Example 204, N-[[6-(4-Oxo-4H-1,3-benzothiazin-2-yl)-2-pyridyl]methyl]ace tamide] |
| 240 °C (dec.) | O=C(O)CCc1ccnc(-c2nc(=O)c3ccc(F)cc3s2)c1 [Example 186, 3-[2-(7-Fluoro-4-oxo-4H-1,3-benzothiazin-2-yl)-4-pyridyl]propionic acid] |
| 170.2 to 170.8 °C | CC(C)(C)OC(=O)NCCc1cccc(-c2nc(=O)c3ccccc3s2)n1 [Example 217, tert-Butyl 2-[6-(4-oxo-4H-1,3-benzothiazin-2-yl)-2-pyridyl]ethylcarbamate] |
| 209.6 to 210.7 °C | Cc1csc(-c2nc(=O)c3ccccc3s2)n1 [Example 349, 2-(4-Methyl-1,3-thiazol-2-yl)-4H-1,3-benzothiazin-4-one] |
| 151.8 to 152.1 °C | CC(C)(C)OC(=O)CCc1ccnc(-c2nc(=O)c3ccc(Cl)cc3s2)c1 [Example 183, tert-Butyl 3-[2-(7-chloro-4-oxo-4H-1,3-benzothiazin-2-yl)-4-pyridyl]propanoate] |
| 188.5 to 190 °C | CC[S+]([O-])Cc1cccc(-c2nc(=O)c3ccccc3s2)n1 (stereo not drawn) [Example 250, 2-[6-[(Ethylsulfinyl)methyl]-2-pyridyl]-4H-1,3-benzothiazine-4-one] |
| 219 to 220 °C | Cc1nc(-c2nc(=O)c3ccccc3s2)cs1 [Example 347, 2-(2-Methyl-1,3-thiazol-4-yl)-4H-1,3-benzothiazin-4-one] |
| 157.2 to 158.5 °C | COC(CCCNc1ccc(-c2nc(=O)c3ccccc3s2)cn1)OC [Example 86, 2-[6-[(4,4-Dimethoxybutyl)amino]-3-pyridyl]-4H-1,3-benzothiazine-4-one] |
| 256.7 to 257 °C | NC(=O)CSc1cccc(-c2nc(=O)c3ccccc3s2)n1 [Example 282] |

| melting point | Structure (SMILES) |
| --- | --- |
| 135.6 to 137 °C | O=c1nc(-c2ccccn2)sc2ccc(OCCCCCCO)cc12 [Example 119, 6-(6-Hydroxyhexyloxy)-2-(2-pyridyl)-4H-1,3-benzothiazine-4-one] |
| 250 °C (dec.) | O=C(O)COc1ccc2sc(-c3ccccn3)nc(=O)c2c1 [Example 123, 2-[[4-Oxo-2-(2-pyridyl)-4H-1,3-benzothiazin-6-yl]oxy]acetic acid] |
| 201.7 to 202.6 °C | O=C(NCCc1cccc(-c2nc(=O)c3ccccc3s2)n1)c1ccccc1 [Example 224, N-[2-[6-(4-Oxo-4H-1,3-benzothiazin-2-yl)-2-pyridyl]ethyl]benzamide] |
| 195.4 to 197 °C | O=c1nc(-c2cccc(-c3ccccc3)n2)sc2ccccc12 [Example 197, 2-(6-Phenyl-2-pyridyl)-4H-1,3-benzothiazine-4-one] |
| 206.9 to 208 °C | CNc1cccc(-c2nc(=O)c3ccccc3s2)n1 [Example 109, 2-(6-Methylamino-2-pyridyl)-4H-1,3-benzothiazine-4-one] |
| 212 °C (dec.) | NCCc1ccnc(-c2nc(=O)c3ccc(Cl)cc3s2)c1 (as salt: trifluoroacetic acid salt) [Example 223, 2-[4-(2-Aminoethyl)-2-pyridyl]-7-chloro-4H-1,3-benzothiazine-4-one trifluoroacetic acid salt] |
| 271.3 to 272.7 °C | O=c1nc(-c2cccc(-c3cnco3)n2)sc2ccccc12 [Example 195] |
| 207.6 to 207.9 °C | Nc1ccnc(-c2nc(=O)c3ccccc3s2)c1 [Example 142, 2-(4-Amino-2-pyridyl)-4H-1,3-benzothiazine-4-one] |
| 262.9 to 263.5 °C | O=C(O)CCc1ccnc(-c2nc(=O)c3ccc(Cl)cc3s2)c1 [Example 185, 3-[2-(7-Chloro-4-oxo-4H-1,3-benzothiazin-2-yl)-4-pyridyl]propionic acid] |
| 193.2 to 193.3 °C | CCN(CC)C(=O)c1ccc(-c2nc(=O)c3ccccc3s2)nc1 [Example 144, N,N-Diethyl-6-(4-oxo-4H-1,3-benzothiazin-2-yl)nicotinamide] |
| 141.3 to 141.6 °C | CC(=O)OCCCc1cccc(-c2nc(=O)c3ccccc3s2)n1 [Example 301, 3-[6-(4-Oxo-4H-1,3-benzothiazin-2-yl)-2-pyridyl]propyl acetate] |
| 162.3 to 163 °C | Cc1cc(CCC(=O)OC(C)(C)C)nc(-c2nc(=O)c3ccc(Cl)cc3s2)c1 [Example 190, tert-Butyl 3-[6-(7-chloro-4-oxo-4H-1,3-benzothiazin-2-yl)-4-methyl-2-pyridyl]propanoate] |
| 126 to 128 °C | O=c1nc(-c2cccc(CSCc3ccccc3)n2)sc2ccccc12 [Example 255, 2-[6-[(Benzylthio)methyl]-2-pyridyl]-4H-1,3-benzothiazine-4-one] |
| 191.2 to 191.4 °C | COc1cccc2c(=O)nc(-c3ccccn3)sc12 [Example 18, 8-Methoxy-2-(2-pyridyl)-4H-1,3-benzothiazine-4-one] |
| 175.2 to 176.3 °C | CN(C)C(=O)NCc1cccc(-c2nc(=O)c3ccccc3s2)n1 [Example 216, N,N-Dimethyl-N′-[[6-(4-oxo-4H-1,3-benzothiazin-2-yl)-2-pyridyl]methyl]urea] |
| 215 to 217 °C | O=C(O)CCc1cccc(-c2nc(=O)c3ccc(F)cc3s2)n1 [Example 182, 3-[6-(7-Fluoro-4-oxo-4H-1,3-benzothiazin-2-yl)-2-pyridyl]propionic acid] |
| 120.3 to 120.7 °C | CCOC(=O)C(C)Cc1ccnc(-c2nc(=O)c3ccccc3s2)c1 (stereo not drawn) [Example 318, Ethyl 2-methyl-3-[2-(4-oxo-4H-1,3-benzothiazin-2-yl)-4-pyridyl]propionate] |
| 206.2 to 207.4 °C | CC(=O)N1CCCC1c1ccnc(-c2nc(=O)c3ccccc3s2)c1 (stereo not drawn) [Example 351, 2-[4-(1-Acetyl-2-pyrrolidinyl)-2-pyridyl]-4H-1,3-benzothiazine-4-one] |
| 160 to 162.1 °C | CC(C)(C)OC(=O)NCc1cccc(-c2nc(=O)c3ccccc3s2)n1 [Example 202, tert-Butyl [6-(4-Oxo-4H-1,3-benzothiazin-2-yl)-2-pyridyl]methylcarbamate] |
| 149.5 to 151 °C | O=c1nc(-c2cccc(S(=O)(=O)CCCc3ccccc3)n2)sc2ccccc12 [Example 166, 2-[6-[(3-Phenylpropyl)sulfonyl]-2-pyridyl]-4H-1,3-benzothiazine-4-one] |
| 156.5 to 157.1 °C | Cc1cc(C)c2sc(-c3cccc(CCCOCCC(=O)O)n3)nc(=O)c2c1 [Example 88] |
| 188.5 to 190 °C | CCS(=O)(=O)Cc1cccc(-c2nc(=O)c3ccccc3s2)n1 [Example 251, 2-[6-[(Ethylsulfonyl)methyl]-2-pyridyl]-4H-1,3-benzothiazine-4-one] |
| 214.2 to 215.3 °C | O=c1cccc(-c2nc(=O)c3ccccc3s2)[nH]1 [Example 326, 2-(6-Oxo-1,6-dihydro-2-pyridyl)-4H-1,3-benzothiazine-4-one] |
| 235.5 to 236.5 °C | CSc1cc(CCC(=O)O)cc(-c2nc(=O)c3ccccc3s2)n1 [Example 342, 3-[2-(Methylthio)-6-(4-oxo-4H-1,3-benzothiazin-2-yl)-4-pyridyl]propionic acid] |
